Laboratory results from patent US20250255848A1, “SUBSTITUTED 6,7-DIHYDRO-5H-BENZO[7]ANNULENE DERIVATIVES, PROCESSES FOR THEIR PREPARATION AND THERAPEUTIC USES THEREOF” (SANOFI, priority 2022, published 2025).
pIC50: −log10 of the molar value.

Biological target: ERα (Homo sapiens (Human), UniProt P03372)
Assay: Estrogen receptor degradation activity: breast cancer cell ERα in cell western assay
Format: cell-based
Details: MCF7 cells; for % Degradation At 0.3 μM: 4 hours, normalised to fulvestrant 0.1 μM and DMSO
Experimental: Said test involves measuring the in vitro degradation activity of the compounds of the Table 1a.
The measurements of the degradation activities were made using a breast cancer cell ERα in cell western assay as described hereunder.
MCF7 cells (ATCC) were seeded in 384 wells microplate (collagen coated) at a concentration of 10000 cells/30 μL per well in red phenol free MEM alpha medium (invitrogen) containing 5% charcoal dextran striped FBS. The following day, 9 points serial 1:5 dilution of each compound was added to the cells in 2.5 μL at final concentrations ranging from 0.3-0.0000018 μM (in table 2), or 0.1 μM for fulvestrant (using as positive control). At 4 hours post compound addition the cells were fixed by adding 25 μL of formalin (final concentration 5% formalin containing 0.1% triton) for 10 minutes at room temperature and then washed twice with PBS. Then, 50 μL of LI-COR blocking buffer containing 0.1% Triton was added to plate for 30 minutes at room temperature. LI-COR blocking buffer was removed and cells were incubated overnight at cold room with 50 μL anti-ER rabbit monoclonal antibody (Thermo scientific MA1-39540) diluted at 1:1000 in LI-COR blocking buffer containing 0.1% tween-20. Wells which were treated with blocking buffer but no antibody were used as background control. Wells were washed twice with PBS (0.1% tween-20) and incubated at 37° C. for 60 minutes in LI-COR (0.1% tween-20) containing goat anti-rabbit antibody Alexa 488 (1:1000) and Syto-64 a DNA dye (2 μM final concentration). Cells were then washed 3 times in PBS and scanned in ACUMEN explorer (TTP-Labtech). Integrated intensities in the green fluorescence and red fluorescence were measured to determine the levels of ERα and DNA respectively.
The degradation activity with respect to estrogen receptors in this test is given by the concentration which degrades 50% of the estrogen receptor (or IC50) in nM.
The % of ERα levels decrease were determined as follows: % inhibition=100*(1−(sample−fulvestrant:DMSO−fulvestrant)).

[1] = 4 hours post compound addition, concentration which degrades 50% of the estrogen receptor

Sequence of ERα (P03372 whole entry): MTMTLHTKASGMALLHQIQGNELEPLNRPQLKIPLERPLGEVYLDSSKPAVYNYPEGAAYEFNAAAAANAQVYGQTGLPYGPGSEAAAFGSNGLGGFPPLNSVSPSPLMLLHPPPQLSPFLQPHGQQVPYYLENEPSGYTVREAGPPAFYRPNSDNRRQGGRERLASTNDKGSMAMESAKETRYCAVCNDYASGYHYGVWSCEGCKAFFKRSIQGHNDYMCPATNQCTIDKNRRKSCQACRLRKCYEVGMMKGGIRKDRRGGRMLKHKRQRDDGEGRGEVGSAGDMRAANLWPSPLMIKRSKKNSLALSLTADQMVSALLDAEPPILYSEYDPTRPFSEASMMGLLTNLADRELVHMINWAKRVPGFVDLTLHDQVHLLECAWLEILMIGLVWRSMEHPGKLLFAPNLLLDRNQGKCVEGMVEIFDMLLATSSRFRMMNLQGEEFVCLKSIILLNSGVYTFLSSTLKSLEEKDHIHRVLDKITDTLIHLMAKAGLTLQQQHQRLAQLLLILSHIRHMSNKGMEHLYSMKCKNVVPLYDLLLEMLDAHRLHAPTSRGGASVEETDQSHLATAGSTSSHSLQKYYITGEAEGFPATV

% Degradation At 0.3 μM [%] | pIC50 [1] | DC50 (4 hours post compound addition, concentration which degrades 50% of the estrogen receptor, read-out: Degradation IC50) [nM] | SMILES
91 | 9.40 |  | Cc1cccc(C2=C(c3ccc(C=C4CN(CCCF)C4)cc3)c3ccc(C(=O)O)cc3CCC2)c1C(F)F [Compound 30, 8-(2-(difluoromethyl)-3-methylphenyl)-9-(4-((1-(3-fluoropropyl)azetidin-3-ylidene)methyl)phenyl)-6,7-dihydro-5H-benzo[7]annulene-3-carboxylic acid]
90 | 8.96 |  | COc1cccc(C)c1C1=C(c2ccc(C=C3CN(CCCF)C3)cc2)c2ccc(C(=O)O)cc2CCC1 [Compound 4, 9-(4-((1-(3-fluoropropyl)azetidin-3-ylidene)methyl)phenyl)-8-(2-methoxy-6-methylphenyl)-6,7-dihydro-5H-benzo[7]annulene-3-carboxylic acid]
90 | 9.00 |  | O=C(O)c1ccc2c(c1)CCCC(c1cccc3c1OCCC3)=C2c1ccc(C=C2CN(CCCF)C2)cc1 [Compound 67, 8-(chroman-8-yl)-9-(4-((1-(3-fluoropropyl)azetidin-3-ylidene)methyl)phenyl)-6,7-dihydro-5H-benzo[7]annulene-3-carboxylic acid]
93 | 9.10 |  | CCc1cccc(C2=C(c3ccc(C=C4CN(CCCF)C4)cc3)c3ccc(C(=O)O)cc3CCC2)c1C(F)(F)F [Compound 8, 8-(3-ethyl-2-(trifluoromethyl)phenyl)-9-(4-((1-(3-fluoropropyl)azetidin-3-ylidene)methyl)phenyl)-6,7-dihydro-5H-benzo[7]annulene-3-carboxylic acid]
93 | 9.30 |  | COc1c(Cl)cccc1C1=C(c2ccc(C=C3CN(CCCF)C3)cc2)c2ccc(C(=O)O)cc2CCC1 [Compound 49, 8-(3-chloro-2-methoxyphenyl)-9-(4-((1-(3-fluoropropyl)azetidin-3-ylidene)methyl)phenyl)-6,7-dihydro-5H-benzo[7]annulene-3-carboxylic acid]
95 | 8.85 |  | COc1ccc(C2=C(c3ccc(C=C4CN(CCCF)C4)cc3)c3ccc(C(=O)O)cc3CCC2)cc1OC [Compound 82, 8-(3,4-dimethoxyphenyl)-9-(4-((1-(3-fluoropropyl)azetidin-3-ylidene)methyl)phenyl)-6,7-dihydro-5H-benzo[7]annulene-3-carboxylic acid]
95 | 9.30 |  | O=C(O)c1ccc2c(c1)CCCC(c1ccc(C(F)F)cc1OC(F)(F)F)=C2c1ccc(C=C2CN(CCCF)C2)cc1 [Compound 54, 8-(4-(difluoromethyl)-2-(trifluoromethoxy)phenyl)-9-(4-((1-(3-fluoropropyl)azetidin-3-ylidene)methyl)phenyl)-6,7-dihydro-5H-benzo[7]annulene-3-carboxylic acid]
91 | 9.70 |  | Cc1cccc(F)c1C1=C(c2ccc(C=C3CN(CCCF)C3)cc2)c2ccc(C(=O)O)cc2CCC1 [Compound 26, 8-(2-fluoro-6-methylphenyl)-9-(4-((1-(3-fluoropropyl)azetidin-3-ylidene)methyl)phenyl)-6,7-dihydro-5H-benzo[7]annulene-3-carboxylic acid]
92 | 8.07 |  | COc1cc(C2=C(c3ccc(C=C4CN(CCCF)C4)cc3)c3ccc(C(=O)O)cc3CCC2)ccc1C(F)(F)F [Compound 50, 9-(4-((1-(3-fluoropropyl)azetidin-3-ylidene)methyl)phenyl)-8-(3-methoxy-4-(trifluoromethyl)phenyl)-6,7-dihydro-5H-benzo[7]annulene-3-carboxylic acid]
86 | 8.77 |  | CC1(C)CCC(C2=C(c3ncc(C=C4CN(CCC(F)F)C4)cc3F)c3ccc(C(=O)O)cc3CCC2)CC1 [Compound 66, 9-(5-((1-(3,3-difluoropropyl)azetidin-3-ylidene)methyl)-3-fluoropyridin-2-yl)-8-(4,4-dimethylcyclohexyl)-6,7-dihydro-5H-benzo[7]annulene-3-carboxylic acid]
94 | 9.40 |  | COc1cc(Cl)cc(C)c1C1=C(c2ccc(C=C3CN(CCCF)C3)cc2)c2ccc(C(=O)O)cc2CCC1 [Compound 83, 8-(4-chloro-2-methoxy-6-methylphenyl)-9-(4-((1-(3-fluoropropyl)azetidin-3-ylidene)methyl)phenyl)-6,7-dihydro-5H-benzo[7]annulene-3-carboxylic acid]
91 | 9.22 |  | COc1ccc(C2=C(c3ccc(C=C4CN(CCCF)C4)cc3)c3ccc(C(=O)O)cc3CCC2)c(C(F)F)c1 [Compound 37, 8-(2-(difluoromethyl)-4-methoxyphenyl)-9-(4-((1-(3-fluoropropyl)azetidin-3-ylidene)methyl)phenyl)-6,7-dihydro-5H-benzo[7]annulene-3-carboxylic acid]
95 | 9.70 |  | Cc1ccc(F)c(C)c1C1=C(c2ccc(C=C3CN(CCCF)C3)cc2)c2ccc(C(=O)O)cc2CCC1 [Compound 75, 8-(3-fluoro-2,6-dimethylphenyl)-9-(4-((1-(3-fluoropropyl)azetidin-3-ylidene)methyl)phenyl)-6,7-dihydro-5H-benzo[7]annulene-3-carboxylic acid]
91 | 9.40 |  | CCc1cc(C(F)(F)F)ccc1C1=C(c2ccc(C=C3CN(CCCF)C3)cc2)c2ccc(C(=O)O)cc2CCC1 [Compound 25, 8-(2-ethyl-4-(trifluoromethyl)phenyl)-9-(4-((1-(3-fluoropropyl)azetidin-3-ylidene)methyl)phenyl)-6,7-dihydro-5H-benzo[7]annulene-3-carboxylic acid]
93 | 9.22 |  | COc1cccc(C2=C(c3ccc(C=C4CN(CCCF)C4)cc3)c3ccc(C(=O)O)cc3CCC2)c1C(F)F [Compound 60, 8-(2-(difluoromethyl)-3-methoxyphenyl)-9-(4-((1-(3-fluoropropyl)azetidin-3-ylidene)methyl)phenyl)-6,7-dihydro-5H-benzo[7]annulene-3-carboxylic acid]
91 | 8.92 |  | Cc1cc(C2=C(c3ccc(C=C4CN(CCCF)C4)cc3)c3ccc(C(=O)O)cc3CCC2)ccc1C(F)(F)F [Compound 53, 9-(4-((1-(3-fluoropropyl)azetidin-3-ylidene)methyl)phenyl)-8-(3-methyl-4-(trifluoromethyl)phenyl)-6,7-dihydro-5H-benzo[7]annulene-3-carboxylic acid]
90 | 9.10 |  | CCc1cccc(CC)c1C1=C(c2ccc(C=C3CN(CCCF)C3)cc2)c2ccc(C(=O)O)cc2CCC1 [Compound 74, 8-(2,6-diethylphenyl)-9-(4-((1-(3-fluoropropyl)azetidin-3-ylidene)methyl)phenyl)-6,7-dihydro-5H-benzo[7]annulene-3-carboxylic acid]
91 | 9.30 |  | Cc1ccc(C2=C(c3ccc(C=C4CN(CCCF)C4)cc3)c3ccc(C(=O)O)cc3CCC2)c(C(F)F)c1 [Compound 43, 8-(2-(difluoromethyl)-4-methylphenyl)-9-(4-((1-(3-fluoropropyl)azetidin-3-ylidene)methyl)phenyl)-6,7-dihydro-5H-benzo[7]annulene-3-carboxylic acid]
95 | 7.42 |  | COc1cc(C2=C(c3ccc(C=C4CN(CCCF)C4)cc3)c3ccc(C(=O)O)cc3CCC2)ccc1C(F)F [Compound 31, 8-(4-(difluoromethyl)-3-methoxyphenyl)-9-(4-((1-(3-fluoropropyl)azetidin-3-ylidene)methyl)phenyl)-6,7-dihydro-5H-benzo[7]annulene-3-carboxylic acid]
81 |  | 1.8 | O=C(O)c1ccc2c(c1)CCCC(c1ccc(Cl)cc1Cl)=C2c1ccc(C=C2CN(CC(F)CF)C2)cc1 (single isomer, unassigned) [Compound 70, 8-(2,4-dichlorophenyl)-9-(4-((1-(2,3-difluoropropyl)azetidin-3-ylidene)methyl)phenyl)-6,7-dihydro-5H-benzo[7]annulene-3-carboxylic acid]
94 | 9.22 |  | O=C(O)c1ccc2c(c1)CCCC(c1ccc(C(F)F)cc1)=C2c1ccc(C=C2CN(CCCF)C2)cc1 [Compound 55, 8-(4-(difluoromethyl)phenyl)-9-(4-((1-(3-fluoropropyl)azetidin-3-ylidene)methyl)phenyl)-6,7-dihydro-5H-benzo[7]annulene-3-carboxylic acid]
